# Tested on: 885724-159-R-J1-PDC KRAS PDC multicell spheroid viability
# Experiment: Anticancer human tumor 885724-159-R-J1-PDC patient-derived pancreatic adenocarcinoma cell line growth inhibition [KRAS2]
# Settings: for viability, T/C: stronger effect = lower value
# In short: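 KRAS-mutant tumor cells were grown as spheroids with HUVEC endothelial cells and human MSCs as stroma. Targeted agents were tested alone and with KRAS pathway inhibitors. Doses started at or near clinical Cmax, or 10 microM, descending half-log.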
# [1] = curve of first compound, second compound 0.1 µM
# [2] = curve of first compound, second compound 0.316 µM
# [3] = curve of first compound, second compound 1 µM
# [4] = curve of first compound, second compound 3.16 µM
# [5] = curve of first compound, second compound 10 µM
# [6] = second compound 0.1 µM, first compound 0.000316 µM
# [7] = second compound 0.1 µM, first compound 0.001 µM
# [8] = second compound 0.1 µM, first compound 0.00316 µM
# [9] = second compound 0.1 µM, first compound 0.01 µM
# [10] = second compound 0.1 µM, first compound 0.0316 µM
# [11] = second compound 0.1 µM, first compound 0.1 µM
# [12] = second compound 0.316 µM, first compound 0.000316 µM
# [13] = second compound 0.316 µM, first compound 0.001 µM
# [14] = second compound 0.316 µM, first compound 0.00316 µM
# [15] = second compound 0.316 µM, first compound 0.01 µM
# [16] = second compound 0.316 µM, first compound 0.0316 µM
# [17] = second compound 0.316 µM, first compound 0.1 µM
# [18] = second compound 1 µM, first compound 0.000316 µM
# [19] = second compound 1 µM, first compound 0.001 µM
# [20] = second compound 1 µM, first compound 0.00316 µM
# [21] = second compound 1 µM, first compound 0.01 µM
# [22] = second compound 1 µM, first compound 0.0316 µM
# [23] = second compound 1 µM, first compound 0.1 µM
# [24] = second compound 3.16 µM, first compound 0.000316 µM
# [25] = second compound 3.16 µM, first compound 0.001 µM
# [26] = second compound 3.16 µM, first compound 0.00316 µM
# [27] = second compound 3.16 µM, first compound 0.01 µM
# [28] = second compound 3.16 µM, first compound 0.0316 µM
# [29] = second compound 3.16 µM, first compound 0.1 µM
# [30] = second compound 10 µM, first compound 0.000316 µM
# [31] = second compound 10 µM, first compound 0.001 µM
# [32] = second compound 10 µM, first compound 0.00316 µM
# [33] = second compound 10 µM, first compound 0.01 µM
# [34] = second compound 10 µM, first compound 0.0316 µM
# [35] = second compound 10 µM, first compound 0.1 µM
# [36] = second compound 0.1 µM, first compound 0.316 µM
# [37] = second compound 0.1 µM, first compound 1 µM
# [38] = second compound 0.1 µM, first compound 3.16 µM
# [39] = second compound 0.316 µM, first compound 0.316 µM
# [40] = second compound 0.316 µM, first compound 1 µM
# [41] = second compound 0.316 µM, first compound 3.16 µM
# [42] = second compound 1 µM, first compound 0.316 µM
# [43] = second compound 1 µM, first compound 1 µM
# [44] = second compound 1 µM, first compound 3.16 µM
# [45] = second compound 3.16 µM, first compound 0.316 µM
# [46] = second compound 3.16 µM, first compound 1 µM
# [47] = second compound 3.16 µM, first compound 3.16 µM
# [48] = second compound 10 µM, first compound 0.316 µM
# [49] = second compound 10 µM, first compound 1 µM
# [50] = second compound 10 µM, first compound 3.16 µM
# 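Further: spheroids exposed to agents for 7 days before readout.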
smiles,measurement,setting,value
Cn1ncnc1[C@H]1c2n[nH]c(=O)c3cc(F)cc(c23)N[C@@H]1c1ccc(F)cc1 + C=CC(=O)N1CCN(c2nc(=O)n(-c3c(C)ccnc3C(C)C)c3nc(-c4c(O)cccc4F)c(F)cc23)C(C)C1,IC50,[1],> 0.1 µM
same,IC50,[2],> 0.1 µM
same,IC50,[3],> 0.1 µM
same,IC50,[4],> 0.1 µM
same,IC50,[5],> 0.1 µM
same,"viability, T/C",[6],105%
same,"viability, T/C",[7],107%
same,"viability, T/C",[8],103%
same,"viability, T/C",[9],110%
same,"viability, T/C",[10],111%
same,"viability, T/C",[11],92%
same,"viability, T/C",[12],118%
same,"viability, T/C",[13],115%
same,"viability, T/C",[14],113%
same,"viability, T/C",[15],113%
same,"viability, T/C",[16],108%
same,"viability, T/C",[17],94%
same,"viability, T/C",[18],111%
same,"viability, T/C",[19],106%
same,"viability, T/C",[20],117%
same,"viability, T/C",[21],107%
same,"viability, T/C",[22],104%
same,"viability, T/C",[23],96.8%
same,"viability, T/C",[24],106%
same,"viability, T/C",[25],108%
same,"viability, T/C",[26],106%
same,"viability, T/C",[27],105%
same,"viability, T/C",[28],108%
same,"viability, T/C",[29],105%
same,"viability, T/C",[30],89.3%
same,"viability, T/C",[31],97.4%
same,"viability, T/C",[32],93%
same,"viability, T/C",[33],86%
same,"viability, T/C",[34],82.2%
same,"viability, T/C",[35],78.4%
CC(C)n1nc(-c2ccc3oc(N)nc3c2)c2c(N)ncnc21 + C=CC(=O)N1CCN(c2nc(OCC3CCCN3C)nc3c2CCN(c2cccc4cccc(C)c24)C3)CC1CC#N,IC50,"curve of first compound, second compound 0.0316 µM",0.0415 µM
same,IC50,[1],0.0242 µM
same,IC50,[2],0.0191 µM
same,IC50,[3],0.00871 µM
same,IC50,[4],0.00086 µM
same,"viability, T/C","second compound 0.0316 µM, first compound 0.000316 µM",88.8%
same,"viability, T/C","second compound 0.0316 µM, first compound 0.001 µM",77.3%
same,"viability, T/C","second compound 0.0316 µM, first compound 0.00316 µM",67.8%
same,"viability, T/C","second compound 0.0316 µM, first compound 0.01 µM",60.6%
same,"viability, T/C","second compound 0.0316 µM, first compound 0.0316 µM",49.9%
same,"viability, T/C","second compound 0.0316 µM, first compound 0.1 µM",45.9%
same,"viability, T/C",[6],88.1%
same,"viability, T/C",[7],80.4%
same,"viability, T/C",[8],69.4%
same,"viability, T/C",[9],61.7%
same,"viability, T/C",[10],44.2%
same,"viability, T/C",[11],41.2%
same,"viability, T/C",[12],82.1%
same,"viability, T/C",[13],73.8%
same,"viability, T/C",[14],61.4%
same,"viability, T/C",[15],55.6%
same,"viability, T/C",[16],45.1%
same,"viability, T/C",[17],41.8%
same,"viability, T/C",[18],81.9%
same,"viability, T/C",[19],85.5%
same,"viability, T/C",[20],63.8%
same,"viability, T/C",[21],50.2%
same,"viability, T/C",[22],44.1%
same,"viability, T/C",[23],41.1%
same,"viability, T/C",[24],68.3%
same,"viability, T/C",[25],43.1%
same,"viability, T/C",[26],42.9%
same,"viability, T/C",[27],15.3%
same,"viability, T/C",[28],24%
same,"viability, T/C",[29],15.7%
CC(=O)OC12COC1CC(O)C1(C)C(=O)C(O)C3=C(C)C(OC(=O)C(O)C(NC(=O)OC(C)(C)C)c4ccccc4)CC(O)(C(OC(=O)c4ccccc4)C21)C3(C)C (configuration not stated) + COc1cc2nc(C)nc(NC(C)c3cc(N)cc(C(F)(F)F)c3)c2cc1OC1CCOC1,IC50,[1],> 3.16 µM
same,IC50,[2],> 3.16 µM
same,IC50,[3],> 3.16 µM
same,IC50,[4],> 3.16 µM
same,IC50,[5],> 3.16 µM
same,"viability, T/C",[9],105%
same,"viability, T/C",[10],116%
same,"viability, T/C",[11],113%
same,"viability, T/C",[36],122%
same,"viability, T/C",[37],135%
same,"viability, T/C",[38],132%
same,"viability, T/C",[15],104%
same,"viability, T/C",[16],112%
same,"viability, T/C",[17],116%
same,"viability, T/C",[39],125%
same,"viability, T/C",[40],120%
same,"viability, T/C",[41],126%
same,"viability, T/C",[21],104%
same,"viability, T/C",[22],130%
same,"viability, T/C",[23],127%
same,"viability, T/C",[42],132%
same,"viability, T/C",[43],142%
same,"viability, T/C",[44],141%
same,"viability, T/C",[27],95.1%
same,"viability, T/C",[28],104%
same,"viability, T/C",[29],121%
same,"viability, T/C",[45],111%
same,"viability, T/C",[46],119%
same,"viability, T/C",[47],119%
same,"viability, T/C",[33],90.2%
same,"viability, T/C",[34],105%
same,"viability, T/C",[35],119%
same,"viability, T/C",[48],121%
same,"viability, T/C",[49],117%
same,"viability, T/C",[50],111%
CC1COCCN1c1cc(-c2ccnn2C)c2ccnc(-c3ccn[nH]3)c2n1 (configuration not stated),"viability, T/C",compound 0.01 µM,107% [middle of 5 runs]
same,"viability, T/C",compound 0.0316 µM,90.6% [middle of 5 runs]
same,"viability, T/C",compound 0.1 µM,69.9% [middle of 5 runs]
same,"viability, T/C",compound 0.316 µM,62.3% [middle of 5 runs]
same,"viability, T/C",compound 1 µM,56.6% [middle of 5 runs]
same,"viability, T/C",compound 3.16 µM,58.2% [middle of 5 runs]
same,IC50,curve of compound,> 3.16 µM
CC(=O)Nc1cccc(-n2c(=O)n(C3CC3)c(=O)c3c(Nc4ccc(I)cc4F)n(C)c(=O)c(C)c32)c1 + CC1OCC2(CCN(c3cnc(Sc4ccnc(N)c4Cl)c(N)n3)CC2)C1N,IC50,[1],0.000715 µM
same,IC50,[2],0.000532 µM
same,IC50,[3],0.000328 µM
same,IC50,[4],0.000213 µM
same,IC50,[5],0.000106 µM
same,"viability, T/C","second compound 0.1 µM, first compound 0.0001 µM",81.5%
same,"viability, T/C",[6],62%
same,"viability, T/C",[7],44.4%
same,"viability, T/C",[8],33.3%
same,"viability, T/C",[9],24.1%
same,"viability, T/C",[10],17.9%
same,"viability, T/C","second compound 0.316 µM, first compound 0.0001 µM",73.6%
same,"viability, T/C",[12],57.4%
same,"viability, T/C",[13],41.3%
same,"viability, T/C",[14],28.8%
same,"viability, T/C",[15],23.2%
same,"viability, T/C",[16],15.9%
same,"viability, T/C","second compound 1 µM, first compound 0.0001 µM",64.7%
same,"viability, T/C",[18],51.6%
same,"viability, T/C",[19],34.8%
same,"viability, T/C",[20],28%
same,"viability, T/C",[21],18.4%
same,"viability, T/C",[22],15%
same,"viability, T/C","second compound 3.16 µM, first compound 0.0001 µM",57%
same,"viability, T/C",[24],47.6%
same,"viability, T/C",[25],30.3%
same,"viability, T/C",[26],24.3%
same,"viability, T/C",[27],17.5%
same,"viability, T/C",[28],14.3%
same,"viability, T/C","second compound 10 µM, first compound 0.0001 µM",50.6%
same,"viability, T/C",[30],38.6%
same,"viability, T/C",[31],26%
same,"viability, T/C",[32],19.6%
same,"viability, T/C",[33],13.8%
same,"viability, T/C",[34],11.7%
CCNC(=O)CC1N=C(c2ccc(Cl)cc2)c2cc(OC)ccc2-n2c(C)nnc21 (configuration not stated) + C=CC(=O)N1CCN(c2nc(=O)n(-c3c(C)ccnc3C(C)C)c3nc(-c4c(O)cccc4F)c(F)cc23)C(C)C1,IC50,[1],> 10 µM
same,IC50,[2],6.68 µM
same,IC50,[3],> 10 µM
same,IC50,[4],2.22 µM
same,IC50,[5],0.352 µM
same,"viability, T/C",[10],109%
same,"viability, T/C",[11],95.6%
same,"viability, T/C",[36],86.3%
same,"viability, T/C",[37],65.6%
same,"viability, T/C",[38],57%
same,"viability, T/C","second compound 0.1 µM, first compound 10 µM",52.7%
same,"viability, T/C",[16],105%
same,"viability, T/C",[17],94.4%
same,"viability, T/C",[39],77.6%
same,"viability, T/C",[40],61.3%
same,"viability, T/C",[41],55.3%
same,"viability, T/C","second compound 0.316 µM, first compound 10 µM",47.2%
same,"viability, T/C",[22],116%
same,"viability, T/C",[23],89.6%
same,"viability, T/C",[42],66.3%
same,"viability, T/C",[43],63.9%
same,"viability, T/C",[44],51.1%
same,"viability, T/C","second compound 1 µM, first compound 10 µM",51.8%
same,"viability, T/C",[28],105%
same,"viability, T/C",[29],90.5%
same,"viability, T/C",[45],66.3%
same,"viability, T/C",[46],51.8%
same,"viability, T/C",[47],51.8%
same,"viability, T/C","second compound 3.16 µM, first compound 10 µM",45.9%
same,"viability, T/C",[34],78%
same,"viability, T/C",[35],66%
same,"viability, T/C",[48],48.2%
same,"viability, T/C",[49],43.1%
same,"viability, T/C",[50],39.2%
same,"viability, T/C","second compound 10 µM, first compound 10 µM",33.6%

# — PubChem BioAssay AID1963861 (Molecular Pharmacology Branch, DTP, NCI, 2024)
